Reference: patent US20100004325A1, “Use of Baicalein As Prolyl Hydroxylase 2 Inhibitor” (Korea Institute of Science and Technology, priority 2007, published 2010)
Values joined by “and” are separate entries in the source; they are usually repeats but may differ in a detail not shown here. Identical values can stand only once.

Columns and labels:
[1] = test system: VEGF; test: VEGF mRNA expression in HepG2 cells, RT-PCR; assay type: cell-based; conditions: HepG2, normoxia
Experimental: In order to examine the expression of VEGF known as a representative target gene of the HIF-1α, RT-PCR was conducted as follows. In normoxia, DMSO was treated to HepG2 cells as a negative control, and its influence was observed. As a positive control, HepG2 cells were cultured in hypoxia for 16 hours. In order to amplify cDNA of VEGF mRNA expressed in the cell, the RNA of the cultured cell was subjected to RT-PCR by using forward primer (5′-ccatgaactttctgctdtctt-3′, SEQ ID NO: 5) and reverse primer (5′-[…]-3′, SEQ ID NO: 6). Further, in order to amplify cDNA of 18s rRNA, the RNA of the cultured cell was subjected to RT-PCR by using forward primer (5′-[…]-3′, SEQ ID NO: 7) and reverse primer (5′-[…]-3′, SEQ ID NO: 8) (Table 2).
The amplified product was subjected to electrophoresis on 1.5% agarose-gel, and the mRNA expression was quantitated by phosphoimager (Model Las3000, Fuji) (see FIG. 6a).

[2] = test system: HIF-1α binding to hypoxia-response element (HRE); test: p(HRE)4-luciferase reporter assay in HeLa cells; assay type: cell-based; conditions: 20 μM baicalein, 16 hours
Experimental: In order to examine the binding of the HIF-1α stabilized by baicalein in normoxia with HRE existed on a target gene, luciferase assay was conducted as follows. Specifically, HeLa cells (5×10^4 cells/well) were cultured on a 24-well plate, and 100 ng of p(HRE)4-luciferase plasmid and 50 ng of β-galactosidase expression vector, pCHO110, were co-transfected thereinto. As a control to 20 μM of baicalein, DFO (deferoxamine) and CoCl2 were added to the cells, respectively, and cultured for 16 hours. The cell extract was obtained, and the luciferase activity thereof was measured by luminometer (Tuner Designs).
The value was normalized for the β-galactosidase activity value and the total amount of protein measured by BCA protein analysis (Sigma).

[3] = test system: HIF-1α; test: HIF-1α protein expression in HepG2 cells, western blotting; assay type: cell-based; conditions: HepG2, normoxia, 6 hours; increase similar to HIF-1α in hypoxia
Experimental: In order to examine the change of the HIF-1α protein expression by baicalein in a cell, HepG2 strain was grown to 80% confluence on a 60 mm tissue culture plate. Baicalein with increasing concentrations was added to the cultured cell and further cultured in normoxia for 6 hours, and as controls, same cell mixtures were cultured in hypoxia. The cells were washed with 4° C. phosphate based saline buffer, and eluted with radioimmunoprecipitation analysis solution containing 150 mM NaCl, 1% Nonidet P-40, 0.5% deoxycholate, 0.1% SDS, 50 mM Tris (pH 7.4). 100 μg/ml PMSF, 10 μg/ml leupeptin, 1 μg/ml antipain, 10 μg/ml aprotinin, 50 mM β-glycerophosphate, 25 mM NaF, 20 mM EGTA, 1 mM DTT and 1 mM Na3VO4. Then, the cells were centrifuged, and the cell extracts thus obtained were quantified by Bradford protein assay. In order to perform the immunoblot against HIF-1α, 20 μg of the cell extract was suspended in SDS sample buffer, and heated in a water bath for 5 min to completely solublize the protein structure. […] The membrane was treated with ECL solution and exposed to X-ray film for 5 min, and finally the HIF-1α protein was detected, and subjected to luminescence image analyzer (Model LAS-3000, Fuji) for detailed analysis.

[4] = target: T1, PHD2 (Homo sapiens, UniProt Q9GZT9); test: Fluorescence polarization assay of PHD2-mediated hydroxylation of F-P564 peptide (binding to VBC protein); assay type: biochemical; conditions: proline hydroxylation 20 min, baicalein 0 to 200 μM, 500 nM VBC protein; read-out: concentration of baicalein that results in 50% inhibition of the PHD2 activity (IC50)
T1 construct: made in house; host or cells: E. coli BL21 (DE3), pGEX-4T-1
Experimental: In order to screen a PHD2 inhibitor, 1040 compounds having biological activities (NINDS Custom Collection II, MicroSource Discovery Systems) were used. First, 1 μl of each compound was aliquoted into a 1.5 ml tube at the final concentration of 20 μM. Then, GST-PHD2 (final concentration: 0.2-0.3 μg/μl) was mixed with the each compound, followed by adding a buffer (20 mM Tris-HCl, pH 8.0, 100 mM NaCl, 1 mM EDTA, 1 mM PMSF, 0.5% NP-40) thereto. […]
[…] After mixing at room temperature, the resulting mixture was transferred to a 96-well plate, and fluorescence polarization was measured by using VICTOR (Perkin-Elmer).
After obtaining the fluorescence polarization value of the mixture of the F-Hy564 peptide ([…]) in the buffer by VICTOR, the PHD2 inhibitory activity of each compound was represented in percentage based on that the fluorescence polarization value. 26 compounds with at least 60% of PHD2 inhibitory activity were randomly selected. […]
In order to examine the PHD2 inhibitory activity of baicalein, proline hydroxylation was performed for 20 min with increasing final concentrations of baicalein from 0 to 200 μM. […] Fluorescence polarization of the resulting mixture was measured by using a fluorometer (Perkin-Elmer), and the size of slit was 6 nm and the integration time was 5 sec.

[5] = target: T1, PHD2; test: Proline hydroxylation of B-P564 peptide by PHD2, MALDI mass spectrometry; assay type: biochemical; conditions: 800 μM baicalein, 1.4 μg/μl PHD2, 2 hours, room temperature
Experimental: For the analysis of proline hydroxylation, 800 μM of baicalein and 1.4 μg/μl of PHD2 were mixed in a buffer (20 mM Tris-HCl, pH 8.0, 100 mM NaCl, 1 mM EDTA, 1 mM PMSF, 0.5% NP-40) supplemented with ascorbic acid (final concentration: 400 μM) and α-ketoglutarate (final concentration: 100 μM). Then, 3 μM of the B-P564 peptide was added to the resulting mixture, and reacted at room temperature for 2 hours. Excess salts in the enzyme reactant were removed by ZipTipC18 (Millipore), and the eluted reactant was analyzed by MALDI mass spectrometry.

[6] = test system: 12-lipoxygenase; conditions: Daotai et al., JBC 281; cited from earlier work
[7] = target: T2, FIH1 (Homo sapiens, UniProt Q9NWT6); test: Asparagine hydroxylation of F-N803 peptide by FIH1, MALDI mass spectrometry; assay type: biochemical; conditions: 20 μM baicalein, 0.55 μg/μl His-FIH1, 2 hours, room temperature
T2 construct: made in house; host or cells: E. coli BL21 (DE3), pET-28a
Experimental: Further, in order to examine the inhibitory activity of baicalein against FIH1, 20 μM of baicalein and 0.55 μg/μl of His-FIH1 were mixed in a buffer (50 mM Tris-HCl, pH 7.5, 5 mM KCl, 1.5 mM MgCl2) supplemented with ascorbic acid (final concentration: 400 μM) and α-ketoglutarate (final concentration: 100 μM). Then, 4 μM of the F-HIF-1α peptide containing the 788th-822nd amino acid was added to the resulting mixture, and reacted at room temperature for 2 hours. Excess salts in the reactant were removed by ZipTipC18, and the eluted reactant was analyzed by MALDI mass spectrometry.

[8] = target: T3, F-HyP564 peptide / VBC protein (Homo sapiens, UniProt P40337); test: Fluorescence polarization of F-HyP564 peptide bound to VBC protein (counter-test); assay type: binding
T3 construct: made in house; host or cells: E. coli BL21 (DE3), co-expression of pGEX4T-VHL-EB and pDEV-EC (pET29b)

[9] = test system: VEGF; test: VEGF secretion by HeLa cells, ELISA; assay type: cell-based, human; conditions: 20 μM baicalein, 16 hours, compared with DMSO control
Experimental: In order to examine the secretion change of the VEGF protein known as a secretion protein synthesized in a cell, its cell culture solution was subjected to ELISA as follows. Specifically, HeLa cells aliquoted on a 24-well plate were cultured for 24-48 hour, and DMSO, CoCl2 (200 μM), DFO (125 μM) and baicalein (20 μM) were treated thereto, respectively. After culturing for 16 hours, the cell solution was recovered and centrifuged to separate supernatant. The supernatant was aliquoted on an antibody-coated well plate using human VEGF Quantikine ELISA kit (R&D Systems) to monitor the amount of VEGF in the supernatant. Then, an antibody for VEGF was treated to each well, followed by measuring the amount of the VEGF using luminometer.

SMILES: O=c1cc(-c2ccccc2)oc2cc(O)c(O)c(O)c12 [baicalein]
- amount of the expressed VEGF (FIGS. 6a and 6b) [1]: increases
- luciferase activity normalized for total protein amount [2]: a similar result was obtained
- concentration of baicalein at which HIF-1α protein expression increased [3]: more than 50 μM
- IC50 [4]: ~15 µM and 15 µM
- hydroxylation of the proline residue of B-P564 peptide [5]: not hydroxylated
- activity of 12-lipoxygenase [6]: inhibits
- hydroxylation of the asparagine residue of F-HIF-1α peptide (788th-822nd amino acid) [7]: not hydroxylated
- fluorescence polarization value of F-HyP564 peptide with VBC protein ([8]; baicalein at the highest concentration, 500 nM VBC protein): did not decrease
- effect on interaction of F-HyP564 with the VBC protein (fluorescence polarization) ([8]; up to 20 μM of baicalein): did not affect
- amount of VEGF in the supernatant [9]: significantly increase
